Source: patent US5948792A, “Fluorine-containing 1,4-disubstituted piperidine derivatives” (Banyu Pharmaceutical Co., Ltd., priority 1996, dated 1999)

Columns and labels:
Muscarinic M3 Receptor [1] = assay: Bronchodilation in dogs (p.o.), methacholine provocation test; format: in vivo, dog; settings: beagle dogs, 1 mg/kg p.o., 4 hours after administration
Protocol: (§1) Tests for Antagonism Against Muscarinic M3 Receptor (in vivo)
2) Tests for Bronchodilation in Dogs (p.o.)
Twelve- to twenty-four-months-old male beagle dogs (weighing 10-15 kg) were anesthetized with pentobarbital (30 mg/kg, i.v.) and intubated in their bronchus. Their airway sensitivity to inhaled methacholine were measured at least twice at two-weeks interval, and the dogs showing a reproducible methacholine reaction threshold values^1) ware selected. To those dogs whose methacholine reaction threshold value had been confirmed, the test compounds were orally administered (1 mg/kg). Four hours after the administration, the methacholine provocation test was conducted, and then the methacholine reaction threshold value^2) after administration of the test compound was obtained.
The bronchodilator activity of the test compound was determined following equation: [formula]
The methacholine provocation test was conducted using Astograph TCK-6100H Model (Chest). Methacholine chloride was used as bronchoconstritor, which was diluted with isotonic sodium chloride solution in 10-grade concentration levels starting from 40,000 μg/ml, as 20,000, 10,000, 5,000, 2,500, 1,250, 625, 312.5, 156 and 78 μg/ml. These methacholine aerosols were inhaled to the test animal each for 1 min, starting from the lowest concentration level, and respiration resistance was continuously recorded. The concentration level at which the respiration resistance reached twice the initial value was recorded as the methacholine threshold value.

Muscarinic M3 Receptor [2] = target: T1, Muscarinic M3 Receptor (Rattus norvegicus, UniProt P08483); assay: Bronchodilation in rats (i.v.), inhibition of acetylcholine-induced increase in airway resistance; format: in vivo; settings: iv, 5 min, acetylcholine 50 μg/kg i.v. 5 minutes after test compound, read-out: Inhibition of Airway Contraction ED50 iv
T1 construct: male rats of the Sprague-Dawley strain; from tissue; host or cells: airways of living male Sprague-Dawley rats (in vivo)
Protocol: as §1
1-A) Tests for Bronchodilation in Rats (i.v.).
Eight- to eleven-weeks-old male rats of the Sprague-Dawley strain, weighing 380-420 g, were anesthetized with urethane (750 mg/kg. i.p.) and α-chloralose (37.5 mg/kg, i.p.). The bronchus of each rat was intubated, and the right jugular vein was cannulated for drug administration. […] To evoke an increase in airway resistance, acetylcholine (50 μg/kg, i.v.) was administered to the animals. The acetylcholine-induced airway resistance increase was measured 5 minutes before and 5 minutes after administration of test compound, and the ratio of the airway resistance of the latter to the former was calculated. In controls, isotonic sodium chloride solution was used in place of the test compounds and otherwise identical procedures were repeated, the calculated ratio being set to be 100%.

Muscarinic M3 Receptor [3] = target: T1, Muscarinic M3 Receptor; assay: Bronchodilation in rats (p.o.), inhibition of acetylcholine-induced increase in airway resistance; format: in vivo; settings: po, 1 h, acetylcholine 50 μg/kg i.v. 60 minutes after test compound, read-out: Inhibition of Airway Contraction ED50 po
Protocol: as §1
1-B) Tests for Bronchodilation in Rats (p.o.)
Eight- to eleven-weeks-old male rats of Sprague-Dawley strain weighing 380-420 g were orally administered with a test compound. The rats were treated in the identical manner as in the i.v. test, starting 30 minutes after the administration, and their airway resistance values were measured. The acetylcholine-(50 μg/kg, i.v.) induced airway resistance increase were measured 60 minutes after the administration of test compounds. In controls, isotonic sodium chloride solution was used in place of the test compounds and otherwise identical procedures were repeated, the ratio between the two airway resistance values whereby being set to be 100%.

Muscarinic M2 receptor = target: T2, Muscarinic M2 receptor (Homo sapiens, UniProt P08172); assay: Inhibition of binding of [3H]-N-methylscopolamine to muscarinic M2 receptor; settings: CHO cell membranes expressing cloned human receptor; 0.2 nM [3H]-N-methylscopolamine, pH 7.4, 2 hours, 25° C; read-out: Ki M2 (inhibitory effects on binding to muscarinic M2 receptor)
T2 construct: purchased Receptor Biology, Inc; host or cells: CHO cells (membranes)
T2 sequence (P08172 1-466): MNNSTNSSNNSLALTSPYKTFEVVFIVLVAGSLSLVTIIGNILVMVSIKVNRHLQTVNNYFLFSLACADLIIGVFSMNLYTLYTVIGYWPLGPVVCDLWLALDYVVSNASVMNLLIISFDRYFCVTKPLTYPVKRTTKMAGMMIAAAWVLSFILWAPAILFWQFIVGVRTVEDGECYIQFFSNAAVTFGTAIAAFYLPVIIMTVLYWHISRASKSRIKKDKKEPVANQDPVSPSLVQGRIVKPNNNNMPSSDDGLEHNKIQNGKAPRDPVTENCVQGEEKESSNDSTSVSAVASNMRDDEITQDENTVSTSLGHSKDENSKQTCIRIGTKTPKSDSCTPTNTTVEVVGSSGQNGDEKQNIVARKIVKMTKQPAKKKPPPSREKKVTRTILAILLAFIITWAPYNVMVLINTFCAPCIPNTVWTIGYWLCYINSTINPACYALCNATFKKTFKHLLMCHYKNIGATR
Protocol: (§2) Tests on Inhibition of Binding to Muscarinic Receptors
(§3) These tests were performed according to a modification of the method of Hargreaves et al. (Br. J. Pharmacol. 107: 494-501, 1992). Membranes from CHO cells expressing cloned human m1-m5 (Receptor Biology, Inc.) were incubated with 0.2 nM [^3 H]-N-methylscopolamine and each a compound of the present invention to be tested in 0.5 ml of 50 mM Tris-HCl-10 mM MgCl2 -1 mM EDTA (pH 7.4) for 2 hours at 25° C. Free and membrane-bound [^3 H]-N-methylscopolamine were separated by filtration over glass filters (UniFilter-GF/C; Packard Instruments Co., Inc.) using cell harvester (Filtermate™ 196; Packard Instruments Co., Inc.). Then the filter was washed four times with 1 ml of ice-cold Tris-HCl (pH 7.4) and dried at 50° C. After adding a scintillator (Microscinti 0; Packard Instruments Co., Inc.), the radioactivity was counted by a liquid scintillation counter (TopCount™; Packard Instruments Co., Inc.). Non-specific binding was measured in the presence of 1 μM N-methylscopolamine.

Muscarinic M3 receptor [4] = target: T3, Muscarinic M3 receptor (Homo sapiens, UniProt P20309); assay: Inhibition of binding of [3H]-N-methylscopolamine to muscarinic M3 receptor
T3 construct: purchased Receptor Biology, Inc; host or cells: CHO cells (membranes)
Protocol: as §2, §3

T1 sequence (P08483 whole entry): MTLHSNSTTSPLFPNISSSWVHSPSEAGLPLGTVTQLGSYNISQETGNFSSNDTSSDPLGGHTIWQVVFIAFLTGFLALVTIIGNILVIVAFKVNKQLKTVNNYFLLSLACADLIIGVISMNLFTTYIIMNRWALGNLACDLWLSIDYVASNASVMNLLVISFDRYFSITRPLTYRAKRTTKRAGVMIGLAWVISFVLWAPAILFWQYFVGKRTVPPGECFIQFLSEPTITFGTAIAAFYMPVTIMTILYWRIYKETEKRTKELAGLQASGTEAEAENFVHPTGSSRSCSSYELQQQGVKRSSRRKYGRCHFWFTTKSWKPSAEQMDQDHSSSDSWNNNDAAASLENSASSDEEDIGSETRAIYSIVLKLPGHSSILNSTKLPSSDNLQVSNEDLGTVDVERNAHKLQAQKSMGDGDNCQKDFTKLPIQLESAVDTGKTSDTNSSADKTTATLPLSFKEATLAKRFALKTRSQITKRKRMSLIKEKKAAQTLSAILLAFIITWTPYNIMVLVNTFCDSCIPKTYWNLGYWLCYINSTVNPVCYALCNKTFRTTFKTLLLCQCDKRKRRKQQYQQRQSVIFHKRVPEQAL
T3 sequence (P20309 whole entry): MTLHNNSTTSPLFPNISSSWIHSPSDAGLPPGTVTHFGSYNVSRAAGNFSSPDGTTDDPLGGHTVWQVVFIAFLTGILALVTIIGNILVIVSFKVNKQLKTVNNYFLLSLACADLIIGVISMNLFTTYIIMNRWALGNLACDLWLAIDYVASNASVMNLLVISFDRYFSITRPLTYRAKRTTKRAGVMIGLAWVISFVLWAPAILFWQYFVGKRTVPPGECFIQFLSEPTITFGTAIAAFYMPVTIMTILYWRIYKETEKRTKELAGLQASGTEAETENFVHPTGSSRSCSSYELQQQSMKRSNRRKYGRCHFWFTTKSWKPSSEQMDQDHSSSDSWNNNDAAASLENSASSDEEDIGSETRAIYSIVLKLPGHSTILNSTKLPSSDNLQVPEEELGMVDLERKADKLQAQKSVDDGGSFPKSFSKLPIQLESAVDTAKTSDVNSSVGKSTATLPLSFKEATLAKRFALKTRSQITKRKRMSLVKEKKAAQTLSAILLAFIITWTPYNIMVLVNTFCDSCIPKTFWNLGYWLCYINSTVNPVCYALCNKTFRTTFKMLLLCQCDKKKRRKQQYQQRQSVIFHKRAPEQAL

With `COc1cc(CN2CCC(NC(=O)[C@](O)(c3ccccc3)[C@@H]3CCC(F)(F)C3)CC2)ccc1N` [Example 26, (2R)-N-[1-(4-amino-3-methoxybenzyl)piperidin-4-yl]-2-[(1R)-3,3-difluorocyclopentyl]-2-hydroxy-2-phenylacetamide] the “Methacholine Inhalation-inducing Test shift value (after 4 hrs.)” value (Muscarinic M3 Receptor [1]) was over 64, the ED50 (Muscarinic M3 Receptor [2]) was 0.37 mg/kg and the ED50 (Muscarinic M3 Receptor [3]) was 0.95 mg/kg. For the same compound, the Ki (Muscarinic M2 receptor) was 24 µM, the Ki (Muscarinic M3 receptor [4]; CHO cell membranes expressing cloned human receptor, 0.2 nM [3H]-N-methylscopolamine, pH 7.4, 2 hours, 25° C, read-out: Ki M3 (inhibitory effects on binding to muscarinic M3 receptor)) was 0.022 µM and the “M2/M3 (ratio of binding Ki)” value (Muscarinic M3 receptor [4]; selectivity ratio of Ki values, binding) was 1100.
